Source: publication PMC6010023, “Diethylalkylsulfonamido(4-methoxyphenyl)methyl)phosphonate/phosphonic acid derivatives act as acid phosphatase inhibitors: synthesis accompanied by experimental and molecular modeling assessments” (Journal of Enzyme Inhibition and Medicinal Chemistry, 2016)
Read-outs that look alike come from different tables or passages of the source.

Biological target: T1, red kidney bean PAP (rkbPAP) (Phaseolus vulgaris, UniProt P80366)
T1 construct: The rkbPAP was purified from red kidney bean according to the method described by Beck et al; from tissue; host or cells: red kidney bean seeds (Phaseolus vulgaris), local market
T1 sequence (P80366 23-459): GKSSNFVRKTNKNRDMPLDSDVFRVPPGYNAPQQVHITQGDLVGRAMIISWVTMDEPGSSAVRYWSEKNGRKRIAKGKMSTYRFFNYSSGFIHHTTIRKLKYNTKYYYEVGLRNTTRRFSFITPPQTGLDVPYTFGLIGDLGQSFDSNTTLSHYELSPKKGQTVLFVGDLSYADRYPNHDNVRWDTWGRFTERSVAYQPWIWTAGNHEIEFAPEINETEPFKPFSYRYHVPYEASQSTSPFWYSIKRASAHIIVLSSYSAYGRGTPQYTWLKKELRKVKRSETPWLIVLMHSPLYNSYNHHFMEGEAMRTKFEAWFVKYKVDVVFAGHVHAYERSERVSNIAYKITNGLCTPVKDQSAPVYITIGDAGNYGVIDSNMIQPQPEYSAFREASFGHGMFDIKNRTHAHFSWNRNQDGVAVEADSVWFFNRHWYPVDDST
Assay: rkbPAP inhibition assay with p-NPP as substrate
Type: biochemical
Settings: for Ki / inhibition of PAP (in words): pH 4.9; for inhibition mode: from Ki vs KI and Lineweaver–Burk plots
Description: PAP from red kidney bean (rkbPAP) was purified following a previously published protocol. Briefly, red kidney beans (Phaseolus vulgaris), provided from local market, were ground and suspended in 0.5 M sodium chloride solution. The suspension was filtered through a muslin cloth, followed by ethanol fractionation and ammonium sulfate precipitation. The purple enzyme solution was dialyzed against several changes of 0.25 M NaCl over a period of several days. The purple precipitate, which formed in the dialysis bag was collected by centrifugation. The resulting preparation stored at 4 °C in 0.5 M NaCl. The protein identity and purity was tested by SDS–polyacrylamide gel electrophoresis (SDS–PAGE) and by comparing with molecular weight protein markers, by loading the protein samples on a 12% slab gel. Protein concentration was determined by Lowry method.
Inhibition assays for rkbPAP was performed in 96-well multi-titer plates using a microplate reader. Kinetic measurements were taken at pH 4.9 (0.1 M sodium citrate buffer with 5% DMSO) at 25 °C using p-nitrophenyl phosphate (p-NPP) as the substrate at concentrations of 1, 2, 4, 6, 8, 10, 12, 14, 18 and 24 mM[29]. The hydrolysis of p-NPP by PAP produces p-nitrophenol (p-NP), which has a characteristic intense yellow color at 405 nm with […] [18]^,[26]. The concentration of enzyme used was ∼60 nM, while at least eight concentrations of each compound ranged from 50 to 2000 µM. The IC50 values obtained by “Dose–response inhibition/variable slopes” equation that was performed using GraphPad Prism version 5.00 for Windows (GraphPad Software, San Diego CA, www.graphpad.com). The experimental data are representative example of three independent experiments. In most cases, the standard deviations were almost within 5% of the experimental values, except for some inhibition data points where standard errors of means were within 10% of the measured values. p < .05 was considered statistically significant.
To determination of inhibition mode, the Michaelis–Menten constant (Km) and maximum velocity (Vmax) and inhibition constants (Ki and KI) values were obtained using Equation (1)[29]^,[30] in the presence of at least four concentrations of each compound which were selected from concentration–activity curves. The data were analyzed by nonlinear regression using the program GraphPad Prism (1) v=Vmax[S]/[S](1+[I]/KI)+Km(1+[I]/Ki) where Ki and KI are the equilibrium dissociation constants for competitive and uncompetitive inhibitor binding, respectively, while, v, [S] and [I] represent the rate of product formation, the substrate and the inhibitor concentration, respectively. […] If Ki < KI, the type of enzyme inhibition was defined as competitive-noncompetitive and if Ki > KI, the type of enzyme inhibition was defined as uncompetitive–noncompetitive. […] For better visual presentation of data of inhibition mode, the Lineweaver–Burk plots were also provided.

[1] = dissociation constant of enzyme–inhibitor complex (competitive), read-out: Ki
[2] = dissociation constant of enzyme–substrate–inhibitor complex (uncompetitive), read-out: KI
[3] = rkbPAP, pH 4.9, 25 °C, p-NPP substrate, read-out: IC50
[4] = rkbPAP, pH 4.9, 25 °C, p-NPP substrate
[5] = KI, dissociation constant of enzyme–substrate–inhibitor complex (uncompetitive)
[6] = Ki, dissociation constant of enzyme–inhibitor complex (competitive)

Row | SMILES | Ki [1] [µM] | inhibition mode | IC50 [3] [µM] | inhibition of PAP (in words) | IC50 [4] | other results
1 | CCCCCCCCCCCCS(=O)(=O)NC(c1ccc(OC)cc1)P(=O)(O)O (stereo not drawn) [4c, (Dodecylsulfonamido(4-methoxyphenyl)methyl)phosphonic acid] | 95 ± 9 | noncompetitive inhibition | 421 |  |  | Ki [2]: 103 ± 5 µM
2 | CCCCCCS(=O)(=O)NC(c1ccc(OC)cc1)P(=O)(O)O (stereo not drawn) [4a, (Hexylsulfonamido(4-methoxyphenyl)methyl)phosphonic acid] |  |  |  | negligible inhibitions of PAP, in millimolar range | Very weak inhibitor | 
3 | CCCCCCCCCCCCCCCCS(=O)(=O)NC(c1ccc(OC)cc1)P(=O)(OCC)OCC (stereo not drawn) [3d, Diethyl(hexadecylsulfonamido(4-methoxyphenyl)methyl)phosphonate] |  | mixed manner |  |  |  | IC50: 92 µM; Ki [5]: 36 ± 3 µM; Ki [6]: 13 ± 1 µM
4 | CCCCCCS(=O)(=O)NC(c1ccc(OC)cc1)P(=O)(OCC)OCC (stereo not drawn) [3a, Diethyl(hexylsulfonamido(4-methoxyphenyl)methyl)phosphonate] |  |  |  | negligible inhibitions of PAP, in millimolar range | Very weak inhibitor | 
5 | O=C(O)C(O)C(O)C(=O)O (stereo not drawn) [Tartrate, reference compound] | 783 ± 41 |  | 3310 | weakly inhibited |  | 
6 | CCCCCCCCCCCCS(=O)(=O)NC(c1ccc(OC)cc1)P(=O)(OCC)OCC (stereo not drawn) [3c, Diethyl(dodecylsulfonamido(4-methoxyphenyl)methyl)phosphonate] |  | noncompetitive inhibition |  |  |  | IC50: 759 µM; Ki [5]: 211 ± 8 µM; Ki [6]: 202 ± 11 µM
7 | CCCCCCCCS(=O)(=O)NC(c1ccc(OC)cc1)P(=O)(OCC)OCC (stereo not drawn) [3b, Diethyl((4-methoxyphenyl)(octylsulfonamido)methyl)phosphonate] |  |  |  | negligible inhibitions of PAP, in millimolar range | Very weak inhibitor | 
8 | CCCCCCCCS(=O)(=O)NC(c1ccc(OC)cc1)P(=O)(O)O (stereo not drawn) [4b, ((4-Methoxyphenyl)(octylsulfonamido)methyl)phosphonic acid] |  |  |  | negligible inhibitions of PAP, in millimolar range | Very weak inhibitor | 
9 | CCCCCCCCCCCCCCCCS(=O)(=O)NC(c1ccc(OC)cc1)P(=O)(O)O (stereo not drawn) [4d, (Hexadecylsulfonamido(4-methoxyphenyl)methyl)phosphonic acid] | 1.1 ± 0.2 | mixed manner | 13 |  |  | Ki [2]: 8.2 ± 1.4 µM
